Measurements from patent publication US20050054615A1, “Calmodulin independent activation of nitric oxide synthase” (Rensselaer Polytechnic Institute, priority 2002, published 2005).
“Also recorded” adds a separate entry of the source. Like-named read-outs stand apart in the source and are kept apart here. One block for each compound: values may come before it.

Columns and labels:
cNOS = assay: Activation of constitutive NOS by nucleotide ligands; assay type: biochemical
Procedure: The effect of 2′AMP on the optical spectra of reductase cofactors in eNOS was also examined for eNOS as isolated and reduced with 1 mM NADPH. eNOS only, eNOS NADPH, eNOS NADPH with 2′AMP, eNOS NADPH with 2′AMP and CAM, and NADPH 2′AMP were compared.
(§1) Nitric Oxide production was assayed using the Griess assay as adapted for microtiter plates (Gross, S. S. (1996) Methods Enzymol. 268:159-68); calcium dependence was measured using EDTA as a Ca+2 buffer system. […] NADPH-dependent cytochrome c reduction was measured spectrophotometrically as described by McMillan et al (McMillan, K., et al., (1992) Proc Nat. Acad. Sci. U.S.A. 89, 11141-11145), adapted to 96-well plate microtiter plates. In each well, the […] reaction mixture contained 50 mM Na+ TRIS buffer, pH 7.5, 50 uM EDTA, 50 uM NADPH, 50 uM horse heart cytochrome c, and ˜10 nM of nNOS. Cytochrome c reduction was monitored at 550 nm (ε=2.1×104/M). In Cam/Ca+2 dependence studies, 0.75 uM CaCl2 and […] calmodulin were added to reaction mixtures. Assays were performed on a SpectraMAX plate reader (Molecular Devices).

eNOS [1] = molecular target: T1, eNOS (Bos taurus, UniProt P29473); assay: Griess assay of NO production by eNOS; assay type: biochemical, bovine; conditions: for eNOS activity relative to eNOS activated by CaM alone: initial concentrations of NADPH and 2′AMP equal, presence of calcium/CaM
T1 construct: further column purification with gel filtration or anion exchange produces very pure full length NOS; made in house; host or cells: E. coli BL21 (pCWori+)
Procedure: as §1
Titration of eNOS with 2′AMP in the presence of ‘fully’ activating levels of Ca+2/CaM was performed using a Greiss assay (see, e.g., the Griess Reagent System, Promega Corporation, Madison, Wis.; and manufacturer's instructions for use). Calcium stoichometries were between two and four. The titration produced an additional activation corresponding to an apparent Kd of ˜1 mM. […] In the most widely used assay systems eNOS is 2-3 fold hyperactivated by 2′AMP (Greiss assay). Enhanced levels of cytochrome c reduction (2-5 fold) can also be observed in both eNOS and nNOS.

eNOS [2] = molecular target: T2, eNOS (Bos taurus, UniProt P29473); assay: NADPH-dependent cytochrome c reduction (electron transfer), eNOS; assay type: biochemical, bovine
T2 construct: further column purification with gel filtration or anion exchange produces very pure full length NOS; made in house; host or cells: E. coli BL21 (pCWori+)
T2 sequence (P29473 1-1205): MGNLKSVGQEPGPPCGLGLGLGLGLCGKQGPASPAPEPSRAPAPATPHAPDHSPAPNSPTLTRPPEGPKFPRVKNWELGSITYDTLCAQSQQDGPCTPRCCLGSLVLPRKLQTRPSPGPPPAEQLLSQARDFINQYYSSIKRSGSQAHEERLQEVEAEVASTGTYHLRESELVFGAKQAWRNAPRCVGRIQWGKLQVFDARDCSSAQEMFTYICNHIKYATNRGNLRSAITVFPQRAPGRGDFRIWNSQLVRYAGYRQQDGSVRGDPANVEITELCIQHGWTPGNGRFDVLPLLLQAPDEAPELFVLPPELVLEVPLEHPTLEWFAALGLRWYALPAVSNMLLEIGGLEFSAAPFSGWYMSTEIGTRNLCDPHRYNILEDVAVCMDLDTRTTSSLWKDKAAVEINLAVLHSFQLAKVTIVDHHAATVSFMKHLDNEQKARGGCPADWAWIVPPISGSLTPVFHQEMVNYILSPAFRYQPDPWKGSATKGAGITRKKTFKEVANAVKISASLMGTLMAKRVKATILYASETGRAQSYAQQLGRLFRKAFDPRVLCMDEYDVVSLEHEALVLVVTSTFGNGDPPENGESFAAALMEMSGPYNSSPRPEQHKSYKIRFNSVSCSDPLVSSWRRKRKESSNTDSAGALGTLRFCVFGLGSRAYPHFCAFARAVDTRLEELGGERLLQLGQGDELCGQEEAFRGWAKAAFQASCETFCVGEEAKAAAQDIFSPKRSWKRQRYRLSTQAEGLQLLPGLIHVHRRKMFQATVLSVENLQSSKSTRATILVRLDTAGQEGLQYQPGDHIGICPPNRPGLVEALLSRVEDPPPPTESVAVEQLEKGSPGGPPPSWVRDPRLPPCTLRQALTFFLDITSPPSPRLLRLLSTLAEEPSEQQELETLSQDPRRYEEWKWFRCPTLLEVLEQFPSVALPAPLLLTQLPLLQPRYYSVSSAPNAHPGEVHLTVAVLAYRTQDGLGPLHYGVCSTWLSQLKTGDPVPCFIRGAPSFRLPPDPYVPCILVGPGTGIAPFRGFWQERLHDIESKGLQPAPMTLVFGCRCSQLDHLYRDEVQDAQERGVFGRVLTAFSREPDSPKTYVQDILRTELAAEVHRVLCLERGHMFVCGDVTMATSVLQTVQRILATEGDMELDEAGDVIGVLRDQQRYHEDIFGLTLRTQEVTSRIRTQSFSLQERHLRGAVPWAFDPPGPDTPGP

nNOS [3] = molecular target: T3, nNOS (Rattus norvegicus, UniProt P29476); assay: NADPH-dependent cytochrome c reduction (electron transfer), nNOS; assay type: biochemical
T3 construct: further column purification with gel filtration or anion exchange produces very pure full length NOS; made in house; host or cells: E. coli BL21 (pCWori+)

nNOS [4] = assay: Nitrite production (Griess) of wild type and mutant nNOS enzymes; assay type: biochemical, rat; conditions: activity of the enzyme preparation, based on heme content
Procedure: Expression and purification of wild type and mutant bovine eNOS and rat nNOS. Expression and purification of bovine eNOS and rat nNOS were performed using procedures similar to those previously described (Martasek, P.,et al., (1996) Biochem Biophys Res Commun. 219(2); 359-65). Transformed cells were broken with a French press, and after centrifugation to remove cell debris the supernatant was loaded on a 2′5′ADP affinity column, washed, and eluted with 2′AMP as described (id). High purity preparations can be obtained with a size exclusion step; we used a Superose 6 HR 10/30 column (Pharmacia Biotech AB, Uppsala, Sweden), flow rate 0.4 mL/min, buffer composition −50 mM Tris-HCl, pH 7.5, 0.1 mM EDTA, 1 mM-mercaptoethanol, 100 mM NaCl, 10% glycerol (vol/vol). During the purification procedure BH4 or L-arginine were added after elution from the affinity column. Enzyme sample concentrations were determined on the basis of heme concentration, except in heme free preparations, where the flavin concentration was measured. UV-visible absorbance spectra were recorded on an Aminco DW-2000 spectrophotometer.
as §1

iNOS = molecular target: T4, iNOS (Mus musculus, UniProt P29477); assay: Effect of NADPH analogs on iNOS electron transfer; assay type: biochemical, murine; conditions: Tris buffer, absence of calmodulin
T4 construct: made in house; host or cells: E. coli
T4 sequence (P29477 1-1144): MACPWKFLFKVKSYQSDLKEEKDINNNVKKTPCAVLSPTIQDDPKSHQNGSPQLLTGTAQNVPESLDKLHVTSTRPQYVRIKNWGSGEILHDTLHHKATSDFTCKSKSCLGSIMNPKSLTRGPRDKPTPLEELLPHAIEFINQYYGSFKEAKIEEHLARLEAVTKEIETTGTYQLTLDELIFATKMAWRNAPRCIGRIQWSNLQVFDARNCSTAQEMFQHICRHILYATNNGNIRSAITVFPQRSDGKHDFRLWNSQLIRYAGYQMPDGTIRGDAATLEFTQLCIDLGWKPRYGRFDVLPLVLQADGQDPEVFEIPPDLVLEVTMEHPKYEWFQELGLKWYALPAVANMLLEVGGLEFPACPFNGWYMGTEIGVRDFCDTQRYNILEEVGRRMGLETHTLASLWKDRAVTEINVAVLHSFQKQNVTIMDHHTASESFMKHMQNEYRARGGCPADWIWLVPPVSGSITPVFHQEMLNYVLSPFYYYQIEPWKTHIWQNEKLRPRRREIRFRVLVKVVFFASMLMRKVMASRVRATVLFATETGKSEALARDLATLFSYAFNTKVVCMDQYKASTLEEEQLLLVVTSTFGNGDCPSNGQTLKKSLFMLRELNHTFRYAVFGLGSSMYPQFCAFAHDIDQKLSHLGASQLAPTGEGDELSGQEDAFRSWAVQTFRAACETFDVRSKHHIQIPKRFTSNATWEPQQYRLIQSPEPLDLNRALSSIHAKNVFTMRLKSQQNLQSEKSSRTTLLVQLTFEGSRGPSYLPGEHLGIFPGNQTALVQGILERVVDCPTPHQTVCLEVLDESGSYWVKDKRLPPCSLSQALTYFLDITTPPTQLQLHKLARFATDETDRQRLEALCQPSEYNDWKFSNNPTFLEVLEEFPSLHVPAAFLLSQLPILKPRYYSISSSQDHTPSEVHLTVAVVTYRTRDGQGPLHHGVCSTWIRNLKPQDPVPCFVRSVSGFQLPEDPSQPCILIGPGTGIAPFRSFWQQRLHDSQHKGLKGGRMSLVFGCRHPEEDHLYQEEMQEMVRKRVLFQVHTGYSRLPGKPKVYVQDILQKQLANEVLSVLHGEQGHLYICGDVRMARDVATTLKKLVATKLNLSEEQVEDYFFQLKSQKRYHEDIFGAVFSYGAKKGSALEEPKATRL

[5] = comparison of nucleotide ligands

T3 sequence (P29476 whole entry): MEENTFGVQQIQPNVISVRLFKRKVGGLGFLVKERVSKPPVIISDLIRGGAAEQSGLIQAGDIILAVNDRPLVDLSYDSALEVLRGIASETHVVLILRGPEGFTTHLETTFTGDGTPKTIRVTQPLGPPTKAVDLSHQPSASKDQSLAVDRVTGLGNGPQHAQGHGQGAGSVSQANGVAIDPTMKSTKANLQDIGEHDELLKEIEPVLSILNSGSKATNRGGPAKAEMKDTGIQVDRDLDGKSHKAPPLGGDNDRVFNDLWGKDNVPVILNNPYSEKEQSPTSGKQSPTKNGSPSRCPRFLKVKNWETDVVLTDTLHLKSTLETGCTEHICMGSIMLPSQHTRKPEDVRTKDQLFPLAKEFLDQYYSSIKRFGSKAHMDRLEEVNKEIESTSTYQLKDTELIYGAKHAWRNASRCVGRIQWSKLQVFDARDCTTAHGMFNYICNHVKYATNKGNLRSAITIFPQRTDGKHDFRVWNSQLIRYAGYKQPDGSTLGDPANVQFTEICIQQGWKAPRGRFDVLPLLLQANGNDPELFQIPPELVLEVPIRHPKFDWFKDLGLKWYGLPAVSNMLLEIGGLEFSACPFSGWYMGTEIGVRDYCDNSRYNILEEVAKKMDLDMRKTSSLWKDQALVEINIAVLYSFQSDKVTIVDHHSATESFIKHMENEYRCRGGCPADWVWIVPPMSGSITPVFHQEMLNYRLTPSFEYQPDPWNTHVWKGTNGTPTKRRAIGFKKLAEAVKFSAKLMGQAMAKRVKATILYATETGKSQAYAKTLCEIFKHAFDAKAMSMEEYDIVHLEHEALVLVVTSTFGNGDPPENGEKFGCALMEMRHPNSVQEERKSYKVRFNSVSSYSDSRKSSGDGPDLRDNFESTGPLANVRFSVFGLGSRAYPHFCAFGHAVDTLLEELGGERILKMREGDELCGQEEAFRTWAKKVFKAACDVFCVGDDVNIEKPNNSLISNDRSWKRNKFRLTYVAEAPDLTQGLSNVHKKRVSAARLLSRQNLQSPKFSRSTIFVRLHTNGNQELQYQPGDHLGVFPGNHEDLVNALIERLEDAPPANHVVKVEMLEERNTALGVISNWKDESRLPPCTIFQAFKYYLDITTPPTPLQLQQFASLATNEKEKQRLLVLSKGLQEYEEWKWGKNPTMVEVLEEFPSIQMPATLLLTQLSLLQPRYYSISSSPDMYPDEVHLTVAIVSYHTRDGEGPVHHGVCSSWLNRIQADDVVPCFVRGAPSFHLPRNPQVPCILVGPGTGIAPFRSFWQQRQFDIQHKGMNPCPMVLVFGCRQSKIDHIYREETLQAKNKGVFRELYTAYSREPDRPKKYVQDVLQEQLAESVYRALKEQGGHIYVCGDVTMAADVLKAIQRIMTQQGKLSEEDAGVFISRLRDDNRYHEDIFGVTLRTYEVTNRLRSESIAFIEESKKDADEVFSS

Compound: Nc1nc2c(ncn2[C@@H]2O[C@@H]3COP(=O)(O)O[C@H]3[C@H]2O)c(=O)[nH]1 [cyclic GMP]
function as NOS activator (cNOS; [5]): did not function as activators

hyperactivation of eNOS (eNOS [1]; Good's buffer systems (e.g., HEPES or MOPS), with Ca+2/CaM): 2-3 fold | eNOS activity relative to eNOS activated by CaM alone (eNOS [1]): 2-3 times | eNOS activity relative to eNOS activated by CaM alone (eNOS [1]; listed as 2′ AMP): 3-5 times | hyperactivation of eNOS (eNOS [1]; most widely used assay systems, Greiss assay): 2-3 fold | Kd (eNOS [1]; titration of eNOS in the presence of 'fully' activating levels of Ca+2/CaM, plate reader Greiss assay, read-out: apparent Kd of additional activation): ~1 mM | enhanced level (activation) of cytochrome c reduction (eNOS [2]; eNOS): 2-5 fold | enhanced level (activation) of cytochrome c reduction (nNOS [3]; nNOS): 2-5 fold
Compound: Nc1ncnc2c1ncn2[C@@H]1O[C@H](CO)[C@@H](O)[C@H]1OP(=O)(O)O [2′AMP]
activation of cNOS in the absence of calmodulin (cNOS; absence of calmodulin, particularly in Tris buffer): activated cNOS in the absence of calmodulin

Nitrite production (nNOS [4]): 186.2 nmoles/min/mg NOS
Compound: G1074Y mutant: rat nNOS small insertion mutant, Gly 1074 replaced by Tyr

Compound: Nc1ncnc2c1ncn2[C@@H]1O[C@H](COP(=O)(O)O)[C@@H](OP(=O)(O)O)[C@H]1O [3′5′ ADP]
function as NOS activator (cNOS; [5]): only a very weak activator

Compound: Nc1nc2c(ncn2[C@@H]2O[C@H](COP(=O)(O)OP(=O)(O)OP(=O)(O)O)[C@@H](O)[C@H]2O)c(=O)[nH]1 [GTP]
function as NOS activator (cNOS; [5]): did not function as activators

Compound: wild-type nNOS: wild type rat neuronal nitric oxide synthase expressed in E. coli
Nitrite production (nNOS [4]): 292.2 nmoles/min/mg NOS

Nitrite production (nNOS [4]): 179.8 nmoles/min/mg NOS
Compound: G1074D mutant: rat nNOS small insertion mutant, Gly 1074 replaced by Asp

Compound: Nc1ncnc2c1ncn2[C@@H]1O[C@@H]2COP(=O)(O)O[C@H]2[C@H]1O [Cyclic AMP]
function as NOS activator (cNOS): did not function as activators

Compound: Nc1nc2c(ncn2[C@@H]2O[C@H](COP(=O)(O)OP(=O)(O)O)[C@@H](O)[C@H]2O)c(=O)[nH]1 [GDP]
function as NOS activator (cNOS; [5]): did not function as activators

activation of electron transfer by ATP (eNOS [2]; wild type eNOS, Tris buffer, absence of calmodulin): activation of electron transfer | activation of electron transfer by ATP (nNOS [3]; wild type nNOS, Tris buffer, absence of calmodulin): activation of electron transfer
Compound: Nc1ncnc2c1ncn2[C@@H]1O[C@H](COP(=O)(O)OP(=O)(O)OP(=O)(O)O)[C@@H](O)[C@H]1O [ATP]
inhibition of iNOS (iNOS): INOS is inhibited; also recorded: inhibition of INOS
